# Results published in patent US20060275289A1, “Preventive or remedy for inflammatory bowel diseases containing anti-cd81 antibody as the active ingredient” (priority 2003, published 2006).
# Assays:
# [1] = system: TNBS-induced colitis mouse; assay: TNBS (2,4,6-trinitrobenzenesulfonic acid)-induced mouse colitis model; format: in vivo; settings: antibody 0.1 mg/head i.p. on division day and day 2, SSZ 200 mg/kg orally once daily
# Experimental: 0.5 g of egg albumin (OVA: manufactured by Sigma) and 0.5 g of K2CO3 (manufactured by Nacalai Tesque) were dissolved in 25 ml of distilled water for injection (OVA solution). 0.5 g of 2,4,6-trinitrobenzenesulfonic acid (TNBS: manufactured by Nacalai Tesque) was dissolved in 25 ml of 0.1 M K2CO3 (TNBS solution). The OVA solution and the TNBS solution were mixed, and the mixture was stirred overnight at room temperature. The stirred solution was dialyzed against 0.01 M NaHCO3 (manufactured by Nacalai Tesque) through a dialyzer (Spectra/Por Membrane MWCO:10,000, manufactured by Spectrum Medical Industries Inc.). The dialyzate was subjected to protein quantitative determination by BCA Protein Assay Reagent (manufactured by Pierce).
# A 1:1 emulsion of complete Freunt adjuvant (CFA: manufactured by Difco Laboratories) and 2 mg/ml of TNP-OVA was subcutaneously injected (sensitized) into the back of a 5-week-old SJL/J mouse (SJL/JorlIcoCrj, male, supplied by Nippon Charles River) at a rate of 0.1 ml/head. […]
# The symptom of colitis from the division day to day 5 after the division was observed. The symptom of colitis was scored according to the conditions of stool [normal stool (score:0), loose stool (score:1) and diarrhea (score:2)]. […]
# On the final day of the experiment, after euthanasia with a high concentration of CO2, a large bowel was extracted, and the length thereof was measured. […]
# [2] = system: IBD-pathogenic cells (mesenteric lymph node cells and spleen cells of TNBS colitis mouse stimulated with Staphylococcal enterotoxin B); format: cell-based
# normal mice = settings: cells incubated 48 hours with 0.2 μg/ml SEB and 10 μM of compound A (condition C); cited from earlier work
# intracellular IFN-γ = format: cell-based, mouse; settings: SEB 1 μg/ml
# [3] = rate of compound-reacted cells for 1% of the cell population, 10 μM compound A
smiles,measurement,setting,value
"O=C(O)c1cc(/N=N/c2ccc(S(=O)(=O)Nc3ccccn3)cc2)ccc1O [SSZ, sulfasalazine]",Intestinal Length mm(S.D),"[1]; large bowel length, day 5 after division, control 87.8 (10.3), Dunnet test * 0.01<p<0.05, ** p<0.01",103.1 (8.3)** mm
same,Symptom of colitis (S.D),"[1]; stool score 0-2, SJL/J mice, control 1.75 (0.46), Steel test * 0.01<p<0.05",0.71 (0.71)*
"Clc1c(C2(c3ccc(N4CCOCC4)cc3)CCC2)nn2c1NCCC2 [compound A, 3-chloro-2-[1-(4-morpholin-4-ylphenyl)cyclobutyl]-4,5,6,7-tetrahydropyrazolo[1,5-a]pyrimidine]","Gene chip expression signal, CD81 (101495_at)",[2],195.1
same,"Gene chip expression signal, CDw40 (92962_at)",[2],63.9
same,"Gene chip expression signal, DAP12 (100397_at)",[2],1144.2
same,"Gene chip expression signal, IL-9 (96574_at)",[2],96.4
same,"Gene chip expression signal, IL-10Rβ (99491_at)",[2],1000.9
same,"Gene chip expression signal, IL-17 (99349_at)",[2],172.4
same,"Gene chip expression signal, Integrin β1 (100124_r_at)",[2],149.4
same,"Gene chip expression signal, Lymphotoxin α (102630_s_at)",[2],220.6
same,"Gene chip expression signal, Paired-Ig-like receptor Al (100328_s_at)",[2],791.2
same,"Gene chip expression signal, TCRV γ4 (102745_at)",[2],33.1
same,IFN-γ gene expression (DNA chip analysis),[2],decreased
same,induction of the symptom of colitis by cells transferred into normal mice,normal mice,do not induce the symptom of colitis
same,"Compound-reacted cells/presence rate, cell surface marker CD3",intracellular IFN-γ; [3],1.1
same,"Compound-reacted cells/presence rate, cell surface marker CD4",intracellular IFN-γ; [3],0.8
same,"Compound-reacted cells/presence rate, cell surface marker CD40",intracellular IFN-γ; [3],2.7
same,"Compound-reacted cells/presence rate, cell surface marker CD40L in CD3",intracellular IFN-γ; [3],0.8
same,"Compound-reacted cells/presence rate, cell surface marker CD81 in CD3",intracellular IFN-γ; [3],11.1
same,"Compound-reacted cells/presence rate, cell surface marker CD49d",intracellular IFN-γ; [3],2.4
same,"Compound-reacted cells/presence rate, cell surface marker TCRV β3",intracellular IFN-γ; [3],0
same,"Compound-reacted cells/presence rate, cell surface marker TCRV γδ",intracellular IFN-γ; [3],4.4
same,"Compound-reacted cells (%), cell surface marker CD40L in CD3","intracellular IFN-γ; share of intracellular IFN-γ-positive cells reduced by compound A (total reduction = 100), 10 μM, presence rate 3.94%",3.3%
same,"Compound-reacted cells (%), cell surface marker CD81 in CD3","intracellular IFN-γ; share of intracellular IFN-γ-positive cells reduced by compound A (total reduction = 100), 10 μM, presence rate 4.67%",51.7%
same,"Compound-reacted cells (%), cell surface marker TCRV γδ","intracellular IFN-γ; share of intracellular IFN-γ-positive cells reduced by compound A (total reduction = 100), 10 μM, presence rate 5.39%",23.8%
same,"Compound-reacted cells (%), cell surface marker CD40","intracellular IFN-γ; share of intracellular IFN-γ-positive cells reduced by compound A (total reduction = 100), 10 μM, presence rate 9.14%",24.3%
same,"Compound-reacted cells (%), cell surface marker CD49d","intracellular IFN-γ; share of intracellular IFN-γ-positive cells reduced by compound A (total reduction = 100), 10 μM, presence rate 16.4%",39.6%
same,"Compound-reacted cells (%), cell surface marker CD4","intracellular IFN-γ; share of intracellular IFN-γ-positive cells reduced by compound A (total reduction = 100), 10 μM, presence rate 45.7%",55.6%
same,"Compound-reacted cells (%), cell surface marker CD3","intracellular IFN-γ; share of intracellular IFN-γ-positive cells reduced by compound A (total reduction = 100), 10 μM, presence rate 92.1%",103.4%
same,"Compound-reacted cells (%), cell surface marker TCRV β3","intracellular IFN-γ; share of intracellular IFN-γ-positive cells reduced by compound A (total reduction = 100), 10 μM, presence rate 100%",0%
